The text below walks through data of ChEMBL document CHEMBL3351480, “Discovery of novel non-carboxylic acid 5-amino-4-cyanopyrazole derivatives as potent and highly selective LPA1R antagonists” (Bioorg Med Chem Lett, 2014).

The source made the active and inactive calls. The rule behind the calls is not given here.

What all share (assay type): functional, cell-based
In assay [1] the target is Lysophosphatidic acid receptor 1 (Homo sapiens) (UniProt Q92633). As to the kind of experiment: Antagonist activity at human LPA1R expressed in Chem-1 cells assessed as inhibition of lysophosphatidic acid-induced calcium mobilization at 30 uM by FLIPR assay.
Chain of Lysophosphatidic acid receptor 1 (Homo sapiens) (Q92633 whole entry): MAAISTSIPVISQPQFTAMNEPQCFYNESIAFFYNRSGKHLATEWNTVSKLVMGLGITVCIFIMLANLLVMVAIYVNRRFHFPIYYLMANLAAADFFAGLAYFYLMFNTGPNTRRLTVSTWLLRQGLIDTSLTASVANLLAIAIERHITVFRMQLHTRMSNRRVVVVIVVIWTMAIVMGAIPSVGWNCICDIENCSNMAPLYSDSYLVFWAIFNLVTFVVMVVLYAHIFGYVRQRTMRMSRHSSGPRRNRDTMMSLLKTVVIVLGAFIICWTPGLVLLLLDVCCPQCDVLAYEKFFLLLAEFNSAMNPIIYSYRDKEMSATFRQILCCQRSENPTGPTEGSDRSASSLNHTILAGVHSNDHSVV
The target of assay [2] is T1, Lysophosphatidic acid receptor 3 (Homo sapiens) (UniProt Q9UBY5).
T1 sequence (whole entry): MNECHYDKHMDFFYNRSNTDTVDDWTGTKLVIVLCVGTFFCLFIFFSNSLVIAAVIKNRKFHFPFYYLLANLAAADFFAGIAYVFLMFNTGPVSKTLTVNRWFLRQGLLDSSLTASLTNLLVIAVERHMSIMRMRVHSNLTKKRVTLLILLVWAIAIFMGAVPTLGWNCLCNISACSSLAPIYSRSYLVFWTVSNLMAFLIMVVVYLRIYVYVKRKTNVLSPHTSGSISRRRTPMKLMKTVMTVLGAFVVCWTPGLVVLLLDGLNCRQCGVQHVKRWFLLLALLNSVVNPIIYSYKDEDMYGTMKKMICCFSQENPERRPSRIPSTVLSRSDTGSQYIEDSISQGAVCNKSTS
As to the kind of experiment: Antagonist activity at human LPA3R expressed in Chem-1 cells assessed as inhibition of lysophosphatidic acid-induced calcium mobilization at 30 uM by FLIPR assay. (Calcium assays in cells follow changes in intracellular calcium, usually with a dye or a luminescent sensor.)

Assay [3] in a line: Antiproliferative activity against human NHLF cells assessed as inhibition of lysophosphatidic acid-induced proliferation by BrdU incorporation assay.
Assay [4] addresses T1, Lysophosphatidic acid receptor 3 (Homo sapiens). Nature of the assay: Antagonist activity at human LPA3R expressed in Chem-1 cells assessed as inhibition of lysophosphatidic acid-induced calcium mobilization by FLIPR assay.

What is called inhibition is the change of the read-out against control, counted positive when it falls. One may read the IC50 as the concentration that gives 50% inhibition. Regarding `CCc1ccc(C(=O)/C(=N\C2CCCC2)n2ncc(C#N)c2N)cc1`, the inhibition in assay [1] was found to be 100%; in assay [2], 14%. The concentration for half-maximal inhibition (IC50) in assay [3] was determined as 533 nM.
Take `COc1ccc(-c2[nH]c3c(C#N)cnn3c2NC2CCCC2)c(OC)c1`: in assay [4], the inhibition result is “inactive”.
Turning to `COc1cc(C(=O)/C(=N\C2CCCC2)n2ncc(C#N)c2N)cc(OC)c1OC`, the inhibition in assay [1] was 13%; in assay [2], 14%.
Take `COc1ccc(C(=O)/C(=N\C2CCCC2)n2ncc(C#N)c2N)c(F)c1`: the inhibition in assay [1] worked out at 100%; in assay [2], 4%. The IC50 in assay [3] is 104 nM.
On the same counts, the results for `COc1ccc(C(=O)/C(=N\C2CCCC2)n2ncc(C#N)c2N)c(OC)c1` are 98%, 23% and 29 nM.
`COc1cc2c(cc1C(=O)/C(=N\C1CCCC1)n1ncc(C#N)c1N)CCC2`: the figures for the inhibition in assay [1] and in assay [2] were 78% and 19%, respectively.
Consider `COc1cc2ccccc2cc1C(=O)/C(=N\C1CCCC1)n1ncc(C#N)c1N`, for which the inhibition was 78% in assay [1] and 2% in assay [2]. For the same compound, in assay [3], the IC50 stood at 184 nM.
For the compound `N#Cc1cnn(/C(=N/C2CCCC2)C(=O)c2ccc(Br)cc2)c1N`, the values for the inhibition in assay [1] and in assay [2] were 96% and 1%, respectively.
In the case of `COc1cc(OC)c(C(=O)/C(=N\C2CCCC2)n2ncc(C#N)c2N)cc1OC`, the values for the inhibition in assay [1] and in assay [2] were 79% and 8%, respectively.
On to `COc1ccc(C(=O)/C(=N\C(C)C)n2ncc(C#N)c2N)c(OC)c1`, for which the inhibition in assay [1] was determined as 88%; in assay [2], 25%. Besides, in assay [3], the IC50 was 27 nM.
With `COc1cc(F)ccc1C(=O)/C(=N\C1CCCC1)n1ncc(C#N)c1N`, the inhibition in assay [1] was determined as 49%; in assay [2] it was 3%.
Consider `COc1ccc(C(=O)/C(=N\C2CCCCC2)n2ncc(C#N)c2N)c(OC)c1`, for which the inhibition in assay [1] was 85%; in assay [2] it was 30%. Moreover, the IC50 in assay [3] stood at 3870 nM.
For `COc1cc(OCc2ccccc2)ccc1C(=O)/C(=N\C1CCCC1)n1ncc(C#N)c1N`, the figures for the inhibition in assay [1] and in assay [2] were 48% and 23%, respectively.
